Series [1] has as its system fMLP-stimulated granulocytes. As to the kind of experiment: Suppression of fMLP-induced LTB4 generation by granulocytes from subjects with AERD. Particulars: pretreatment of granulocytes from subjects with AERD; FIG. 12B-12C. Type of series: cell-based, human. From the text:
FIG. 12A depicts a graph of percentages of platelet-adherent neutrophils (determined by CD61^+ expression) in whole blood from eight subjects with AERD plotted against quantity of LTB4 generated by fMLP-stimulated granulocytes from the same individuals. Percent suppression of fMLP-induced LTB4 by pretreatment with (FIG. 12B) PGE2 or (FIG. 12C) the EP2 receptor-specific agonist was plotted against percentages of platelet-adherent neutrophils in the peripheral blood of each subject. Effect size, determined with Pearson correlation coefficient, is denoted as an r value.
Platelet-rich plasma was removed from whole peripheral blood by centrifugation, washed, and resuspended at a concentration of 1×10^9 platelets/mL. […] Granulocytes were counted and a portion was stripped of adherent platelets by incubation with 0.05% trypsinethylenediaminetetraacetic acid for 15 minutes at 37° C.^17 Removal of adherent platelets was confirmed by cytofluorographic analysis of samples of the granulocytes before and after trypsinization. […]
The percentage of platelet-adherent neutrophils (as determined by CD61+ expression) in the whole blood of subjects with AERD was positively correlated with the amount of LTB4 generated by fMPL-stimulation of granulocytes from the same subjects (FIG. 12A). […]

The next series has as its system mice. As to conditions: pathway depends on platelet associated P2Y12 receptors (ref 49); cited from earlier work.
Another series relates to human platelets. Particulars: exogenous cysLTs; inventors' previous work (ref 49); cited from earlier work.
For series [2] the following is noted: extracellular milieu (ref 43); cited from earlier work.

`CCCCC[C@H](O)/C=C/[C@H]1[C@H](O)CC(=O)[C@@H]1C/C=C\CCCC(=O)O` [PGE2]: the “suppression of leukotriene production (fMLP-induced LTB4)” value in series [1] is “able to suppress leukotriene production”.

For the molecule `CCCCC/C=C\C\C=C/C=C/C=C/[C@@H](SC[C@H](N)C(=O)O)[C@@H](O)CCCC(=O)O` [LTE4], the pulmonary eosinophilia result in the series on mice is reported as “markedly potentiates pulmonary eosinophilia”. Moreover, the “adherence of platelets to granulocytes” value with human platelets is “do not directly cause human platelets to adhere to granulocytes”.

On to `CCCCC/C=C\C\C=C/C=C/C=C/[C@@H]1O[C@H]1CCCC(=O)O` [LTA4, leukotriene (LT)A4], for which, in series [2], the extracellular half-life result was “less than 5 seconds”.

Values taken from patent publication US20150253327A1, “DIAGNOSIS AND TREATMENT OF ASPIRIN-EXACERBATED RESPIRATORY DISEASE (AERD)” (BRIGHAM AND WOMEN'S HOSPITAL, INC., priority 2012, published 2015).
